Results as given in patent publication US20090022803A1, “Oral Formulations For Delivery of Catecholic Butanes Including Ndga Compounds” (priority 2005, published 2009).

How the values were obtained:
[1] = Absorption of M4N in beagle dogs upon oral administration of solid formulations in capsules, serum LC/MS/MS; format: in vivo; conditions: oral single 100 mg/kg
Protocol: Five groups of dogs (n=2 per group, one male and one female) (age=approximately 6-9 months old) were exposed to a single 100 mg/kg dose of M4N in excipient to determine the optimal oral solid excipient. The composition of M4N in excipient was encapsulated in size 12 hard gelatin capsules prior to oral administration. The animals were fasted overnight prior to dosing. The excipients/formulations tested are set forth in Table 19 and were: (a) no excipient, where M4N was encapsulated; (b) HP-β-CD; (c) TPGS; (d) soybean oil+beeswax; and (e) olive oil+beeswax. Blood was collected from each animal via the jugular vein at the following time points: predose, 0.5 hr, 1 hr, 1.5 hr, 2 hr, 4 hr, 6 hr and 8 hr post dosing. Concentrations of M4N in serum were determined by Liquid Chromatography combined with tandem Mass Spectroscopy (LC/MS/MS).

[2] = M4N stability in HP-β-CD/PEG 300 buffer solutions at 60° C., RP-HPLC and pH; format: physicochemical; conditions: for M4N stability: M4N: 25% PEG300
Protocol: The stability of 10 mg/mL M4N (prepared in a ratio of 75:25 40% HP-β-CD: 40 mg/mL M4N PEG 300) in 15 mM buffer solutions was evaluated following incubation at 60° C.
2.0 g HP-β-CD was weighed into 5 mL volumetric flasks on an OHAUS Analytical Plus Balance. 1 mL of a 100 mM buffer solution was added to each flask. Each sample was q.s. to 5 mL with WFI.
750 μL 40% HP-β-CD buffered solution was placed in 1.5 mL polypropylene microtubes. […] After gentle inversion of the sample tubes, the pH of each solution was measured using a Orion, Model 420A pH meter. An initial aliquot was removed for RP-HPLC analysis. Test samples were then placed in a Precision 60° C. incubator. The M4N stability was evaluated by RP-HPLC. At each time point, the samples were centrifuged for 2 minutes at 13,000 rpm to pellet any solid M4N.

[3] = Oral fed/fasted IV/oral pharmacokinetic comparison of M4N formulations, single 75 mg/kg dose; conditions: dogs, single 75 mg/kg oral or IV
[4] = dog, in vivo, iv, 75 mg/kg
[5] = Human Phase 0 three-way crossover microdose pharmacokinetic study of 14C-labelled M4N, AMS; format: in vivo; conditions: for F: bioavailability of oral dose compared to IV dose; for Tmax: intravenous dose
Protocol: This study was designed to assess the absorption of M4N when administered to humans as a sub-therapeutic dose either as a single oral dose under fed and fasted conditions or a single intravenous dose (Regimens A-C, respectively, in Table 24). The study was a three-way crossover study design in a target population of healthy male subjects and consisted of three study periods of approximately 35 hours duration, each separated by a minimum period of at least 7 days between dosing. During the course of each study period, pharmacokinetic blood samples were taken at specified time points after dosing and urine was collected over pre-defined time intervals. The subjects were able to leave the clinical unit after the completion of study specific procedures at 24 hours post-dose.
In this study, M4N was administered to humans in a 100 μg quantity. M4N was lightly-labelled with ^14C (3.3 kBq per 100 μg) and administered to healthy volunteers. Each oral administration of M4N consisted of 0.1 mg of ^14C labeled M4N and 376.8 mg of glycerol monooleate in a size 0 gelatin capsule. The single intravenous infusion of M4N consisted of 0.1 mg/mL ^14C labelled M4N, 30% (w/v) HP-β-CD, and 25% (v/v) PEG diluted with water to 1 mL for bolus injection. Following collection of blood and urine from each subject, samples were analyzed for ^14C content using Accelerator Mass Spectrometry (AMS) to determine the maximum concentration of M4N (Cmax) that occurred at time Tmax, the overall area under the curve (AUC) that corresponds to the overall absorption of M4N at the times of testing (AUC0-t) and overall (AUC0-∞), the terminal half-life (T1/2) of each sample and the relative and overall bioavailability (Frel and F), of the oral dose of M4N compared to the IV dose of M4N. The baseline levels of M4N were corrected for any residual M4N remaining in the subjects following the periods between dosing so as not to inflate the levels of M4N for any subsequent dosing.

[6] = human, 100 μg, total 14C plasma
[7] = human, oral and intravenous 100 μg

Which results are given for `COc1ccc(C[C@@H](C)[C@@H](C)Cc2ccc(OC)c(OC)c2)cc1OC` [Formulation M4N, meso-1,4-bis(3,4-dimethoxyphenyl)-2,3-dimethylbutane]?
Absorption, ranking between formulations ([1]; Lyophilized HP-β-CD (81%)+M4N (185 mg/g)): higher than that containing TPGS; Absorption, ranking between formulations ([1]; TPGS (20%)+M4N (133 mg/g)): higher than that containing soybean oil+beeswax; Absorption, ranking between formulations ([1]; olive oil (95%)+beeswax (5%)+M4N (200 mg/g)): highest; Absorption, ranking between formulations ([1]; soybean oil (95%)+beeswax (5%)+M4N (200 mg/g)): higher than M4N without an excipient; change in M4N concentration ([2]; 10 mg/mL M4N in HP-β-CD/PEG 300 buffer solutions, 14 day incubation at 60° C.): slight decrease; M4N stability: M4N ([2]; 15 mM Acetate, pH 5 30% HP-β-CD, 60° C., 0 days): 10.6 mg/mL; M4N stability: M4N ([2]; 15 mM Acetate, pH 5 30% HP-β-CD, 60° C., 2 days): 10.2 mg/mL; M4N stability: M4N ([2]; 15 mM Acetate, pH 5 30% HP-β-CD, 60° C., 6 days): 9.6 mg/mL; M4N stability: M4N ([2]; 15 mM Acetate, pH 5 30% HP-β-CD, 60° C., 10 days): 9.7 mg/mL; M4N stability: M4N ([2]; 15 mM Acetate, pH 5 30% HP-β-CD, 60° C., 14 days): 9.6 mg/mL; M4N stability: M4N ([2]; 15 mM Acetate, pH 6 30% HP-β-CD, 60° C., 0 days): 10.5 mg/mL; M4N stability: M4N ([2]; 15 mM Acetate, pH 6 30% HP-β-CD, 60° C., 2 days): 10.1 mg/mL; M4N stability: M4N ([2]; 15 mM Acetate, pH 6 30% HP-β-CD, 60° C., 6 days): 9.7 mg/mL; M4N stability: M4N ([2]; 15 mM Acetate, pH 6 30% HP-β-CD, 60° C., 10 days): 9.7 mg/mL; M4N stability: M4N ([2]; 15 mM Acetate, pH 6 30% HP-β-CD, 60° C., 14 days): 9.6 mg/mL; M4N stability: M4N ([2]; 15 mM Borate, pH 10 30% HP-β-CD, 60° C., 0 days): 10.5 mg/mL; M4N stability: M4N ([2]; 15 mM Borate, pH 10 30% HP-β-CD, 60° C., 2 days): 10.1 mg/mL; M4N stability: M4N ([2]; 15 mM Borate, pH 10 30% HP-β-CD, 60° C., 6 days): 9.7 mg/mL; M4N stability: M4N ([2]; 15 mM Borate, pH 10 30% HP-β-CD, 60° C., 10 days): 9.6 mg/mL; M4N stability: M4N ([2]; 15 mM Borate, pH 10 30% HP-β-CD, 60° C., 14 days): 9.6 mg/mL; M4N stability: M4N ([2]; 15 mM Borate, pH 11 30% HP-β-CD, 60° C., 0 days): 10.5 mg/mL; M4N stability: M4N ([2]; 15 mM Borate, pH 11 30% HP-β-CD, 60° C., 2 days): 10.3 mg/mL; M4N stability: M4N ([2]; 15 mM Borate, pH 11 30% HP-β-CD, 60° C., 6 days): 9.8 mg/mL; M4N stability: M4N ([2]; 15 mM Borate, pH 11 30% HP-β-CD, 60° C., 10 days): 9.5 mg/mL; M4N stability: M4N ([2]; 15 mM Borate, pH 11 30% HP-β-CD, 60° C., 14 days): 9.4 mg/mL; M4N stability: M4N ([2]; 15 mM Phosphate, pH 3 30% HP-β-CD, 60° C., 0 days): 10.3 mg/mL; M4N stability: M4N ([2]; 15 mM Phosphate, pH 3 30% HP-β-CD, 60° C., 2 days): 10.1 mg/mL; M4N stability: M4N ([2]; 15 mM Phosphate, pH 3 30% HP-β-CD, 60° C., 6 days): 9.6 mg/mL; M4N stability: M4N ([2]; 15 mM Phosphate, pH 3 30% HP-β-CD, 60° C., 10 days): 9.7 mg/mL; M4N stability: M4N ([2]; 15 mM Phosphate, pH 3 30% HP-β-CD, 60° C., 14 days): 9.6 mg/mL; M4N stability: M4N ([2]; 15 mM Phosphate, pH 4 30% HP-β-CD, 60° C., 0 days): 10.5 mg/mL; M4N stability: M4N ([2]; 15 mM Phosphate, pH 4 30% HP-β-CD, 60° C., 2 days): 10.1 mg/mL; M4N stability: M4N ([2]; 15 mM Phosphate, pH 4 30% HP-β-CD, 60° C., 6 days): 9.6 mg/mL; M4N stability: M4N ([2]; 15 mM Phosphate, pH 4 30% HP-β-CD, 60° C., 10 days): 9.7 mg/mL; M4N stability: M4N ([2]; 15 mM Phosphate, pH 4 30% HP-β-CD, 60° C., 14 days): 9.6 mg/mL; M4N stability: M4N ([2]; 15 mM Phosphate, pH 7 30% HP-β-CD, 60° C., 0 days): 10.5 mg/mL; M4N stability: M4N ([2]; 15 mM Phosphate, pH 7 30% HP-β-CD, 60° C., 2 days): 10.3 mg/mL; M4N stability: M4N ([2]; 15 mM Phosphate, pH 7 30% HP-β-CD, 60° C., 6 days): 9.7 mg/mL; M4N stability: M4N ([2]; 15 mM Phosphate, pH 7 30% HP-β-CD, 60° C., 10 days): 9.7 mg/mL; M4N stability: M4N ([2]; 15 mM Phosphate, pH 7 30% HP-β-CD, 60° C., 14 days): 9.7 mg/mL; M4N stability: M4N ([2]; 15 mM Phosphate, pH 8 30% HP-β-CD, 60° C., 0 days): 10.6 mg/mL; M4N stability: M4N ([2]; 15 mM Phosphate, pH 8 30% HP-β-CD, 60° C., 2 days): 10.4 mg/mL; M4N stability: M4N ([2]; 15 mM Phosphate, pH 8 30% HP-β-CD, 60° C., 6 days): 9.7 mg/mL; M4N stability: M4N ([2]; 15 mM Phosphate, pH 8 30% HP-β-CD, 60° C., 10 days): 9.8 mg/mL; M4N stability: M4N ([2]; 15 mM Phosphate, pH 8 30% HP-β-CD, 60° C., 14 days): 9.6 mg/mL; M4N stability: M4N ([2]; 15 mM Phosphate, pH 9 30% HP-β-CD, 60° C., 0 days): 10.4 mg/mL; M4N stability: M4N ([2]; 15 mM Phosphate, pH 9 30% HP-β-CD, 60° C., 2 days): 10.2 mg/mL; M4N stability: M4N ([2]; 15 mM Phosphate, pH 9 30% HP-β-CD, 60° C., 6 days): 9.7 mg/mL; M4N stability: M4N ([2]; 15 mM Phosphate, pH 9 30% HP-β-CD, 60° C., 10 days): 9.8 mg/mL; M4N stability: M4N ([2]; 15 mM Phosphate, pH 9 30% HP-β-CD, 60° C., 14 days): 9.7 mg/mL; M4N impurities, share of the total peak area ([2]; HP-β-CD/PEG 300 buffer solutions, 60° C.): less than 0.1%; M4N stability: M4N ([2]; WFI, 30% HP-β-CD, 60° C., 0 days): 10.4 mg/mL; M4N stability: M4N ([2]; WFI, 30% HP-β-CD, 60° C., 6 days): 9.9 mg/mL; M4N stability: M4N ([2]; WFI, 30% HP-β-CD, 60° C., 10 days): 9.7 mg/mL; M4N stability: M4N ([2]; WFI, 30% HP-β-CD, 60° C., 14 days): 9.6 mg/mL; change in apparent sample pH ([2]; incubation at 60° C. up to 14 days): Little if any changes; survival [3]: All animals survived; Clinical observations [4]: diarrhea, emesis, and ataxia; F ([5]; Regimen A (oral, fed): 100 μg single oral dose following a high fat breakfast, 14C, baseline corrected, mean ± SD): 91.2 ± 19.1%; F ([5]; Regimen B (oral, fasted): 100 μg single oral dose following an overnight fast, 14C, baseline corrected, mean ± SD): 122.1 ± 14.5%; AUC0-t oral dose in fasted subjects compared with the intravenous dose [5, 6]: slightly higher; AUC0-t oral dose in fed subjects compared with the intravenous dose [5, 6]: slightly lower; apparent absorption following oral administration ([5]; human, fed and fasted state): very high; Tmax ([5]; human, eight of the ten subjects (first sampling time)): 4.8 min; Tmax ([5]; human, two subjects): 10.2 min; AUC0-t in fed subjects compared with fasted subjects ([5]; human, oral 100 μg): generally lower; Tmax, generally ([5]; human, oral 100 μg, fasted subjects): 60 min; adverse events [5, 7]: no serious or severe adverse events; tolerability [5, 7]: well tolerated; vital signs or ECGs [5, 7]: No clinically significant changes; Frel ([5]; relative bioavailability, Regimen A (oral, fed): 100 μg single oral dose following a high fat breakfast, 14C, baseline corrected, mean ± SD): 75.1 ± 16.2%
